Data from US20100226888A1, “Ethanol Enhances the Complete Replication of Hepatitis C Virus: the Role of Acetaldehyde” (priority 2009, published 2010).
Where two headings read alike, the source gives them in different places.

What was measured:
[1] = tested on: HCV RNA replication complex (Con1 strain); conditions: cells treated with ethanol for 5 hrs
Method: (§1) In vitro replication assay was carried out according to the modified method of Ali et al., as previously described (16, 17, 26). Briefly, cytoplasmic lysates were prepared, and the replication was allowed to proceed for 1 hr at 30° C. in the presence of α-^32P-CTP and actinomycin D. Then, RNA products were analyzed on a 1% formaldehyde agarose gel, which was subsequently analyzed, using Optiquant Cyclone 4.00 (Perkin Elmer).
(§2) JFH1-transfected cells were exposed to ethanol for 5 hrs and then, the cytoplasmic lysates, containing the HCV replication complex, were isolated. Then, the in vitro RNA replication assay was performed in the presence of α-^32P-labeled CTP and actinomycin D, as previously described (17). JFH1 GND cell lysates were used as a negative control.

[2] = tested on: HCV RNA replication complex (JFH1)
Method: as §1, §2

JFH1 HCV (genotype 2a) = assay type: cell-based, hepatitis C virus; conditions: for intracellular JFH1 HCV RNA levels: 48 hrs
[3] = tested on: Con1 HCV subgenomic replicon; experiment: Con1 subgenomic replicon HCV RNA in Clone B cells; assay type: cell-based, hepatitis C virus; conditions: 24 hrs, response compared with SgPC2 cells
Description: (§3) The genotype 2a HCV constructs, pJFH1 (produces infectious virus particles), replicative-null pJFH1-GND, and subgenomic pSgJFH1-Luc (contains a luciferase reporter gene), are described elsewhere (23, 24). Subgenomic HCV replicons are bicistronic constructs that express only the nonstructural proteins of HCV under the control of encephalocarditis virus IRES; neomycin resistance or firefly luciferase gene is under the control of the HCV IRES (15, 22, 24). These replicons support HCV RNA replication but no virus is formed in cell culture. Huh7 cell clones (SgPC2 cells, Clone B) supporting continuous replication of subgenomic HCV replicon of genotype 1b (Con1 sequence) were also used (17, 22).
(§4) Intracellular RNA extraction and northern blots were carried out, as described (16, 17). DNA probes were prepared from nucleotides (“nt.”) 4128-8273 or 358-2816 of JFH1, generated with ScaI and ApaL I, respectively, or nt. 3669 to 6016 of the Con1 subgenomic replicons. Images were quantified by densitometry, using Optiquant Cyclone 4.00 (Perkin Elmer), and data were normalized by glyceraldehyde 3-phosphate dehydrogenase (GAPDH) mRNA content.

CYP2E1 = conditions: daily 0.2% (v/v) ethanol for 48 hrs, JFH1 cells
Description: Cells were sonicated in Laemmli buffer, and proteins were separated on 7-20% Tris-glycine gel (Invitrogen) or 12.5% SDS-polyacrylamide gel and western blotted, using mouse monoclonal anti-NS5A (Biodesign, Inc.), goat anti-actin, and the corresponding horseradish peroxidase-conjugated secondary antibodies (Santa Cruz Laboratories) with an ECL Plus kit (Amersham Biosciences). Images were obtained and quantified, using 152000R (Kodak).

[4] = tested on: Huh7 human hepatoma cells; conditions: data not shown
Method: NADH and NAD+ levels were determined by enzymatic NADH recycling assay, using the NAD+/NADH Quantification Kit from Biovision, per manufacturers recommendations with an optional filtration step that used Microcon YM-10 (Millipore). Total ATP content was measured using Somatic Cell ATP Assay Kit from Sigma-Aldrich. The data were normalized by total protein content, determined with BCA assay kit from Pierce.
To examine whether ethanol increased the complete replication of HCV, positive-sense genomic JFH1 RNA was produced by in vitro transcription, using T7 RNA polymerase, and transfected into Huh7 human hepatoma cells. Then, the transfected cells were exposed to 0-1.0% (v/v; 0-172 mM) ethanol once daily with a change of medium each day for 48 hrs. Then, the cells and the cell culture medium were harvested and analyzed for intracellular and RNase A-resistant extracellular HCV RNA's by a combination of Northern blots and qRT-PCR.

[5] = tested on: SgJFH1-Luc subgenomic HCV replicon (genotype 2a); assay type: cell-based, hepatitis C virus
Description: as §3
After various treatments, SgJFH1 Luc RNA-transfected cells were lysed with 1× Reporter Lysis Buffer, and the luciferase activity was determined using Luciferase Reporter Assay Kit (Promega Corp.) (24). Luciferase activities were normalized by total protein content, determined with bicinchoninic acid (BCA) assay kit from Pierce.
To test whether the JFH1 RNA replication was also affected by ethanol, Huh7 cells were transfected with JFH1 SgJFH1-Luc RNA and exposed the cells to ethanol for 48 hours. Then, HCV replication was monitored by measuring the firefly luciferase activity (24).

HCV IRES = conditions: ethanol, data not shown
Method: as §2

JFH1 virus = experiment: HCV RNA in naive Huh7 or Huh7.5 cells inoculated with JFH1 virus-containing medium; assay type: cell-based, hepatitis C virus
Method: (§5) The in vitro transcription, and transfection of HCV RNA, and Huh7 human hepatoma cell culture were performed as previously described (17). For experiments involving stable clones, cells were cultured in medium supplemented with 0.4-0.5 mg/mL G418, and G418 was removed from cell culture medium one day prior to cell treatments, which were performed as described in Results. For the in vitro infectivity assays, 2 ml of the extracellular medium from JFH1 RNA-transfected cells was used to inoculate naive Huh7 or Huh7.5 cells with 3 ml of fresh medium, as described (23, 25). Treatments were initiated 24 hours after infection and the cells were harvested after another 24 or 48 hrs.
The total intracellular RNA was obtained from cells using Trizol (Invitrogen). To obtain extracellular HCV RNA, cell culture medium samples were first treated with RNase A (100 μg/ml) for 30 min at room temperature, then RNA was extracted using Trizol LS and glycogen as a carrier. HCV RNA was quantified by qRT-PCR as described (17, 23). For JFH1, the primer sequences were 5′ […] 3′ (nt 146 to 164; forward, SEQ ID NO.: 1), and 5′ […] 3′ (nt 277 to 295; reverse, SEQ ID NO.: 2), and the sequence of the fluorogenic probe, labeled with 6-FAM and TAMRA (Biosearch Technologies, Inc.), was 5′ […] 3′ (nt 168 to 188, SEQ ID NO.: 3). The primer and probe sequences for qRT-PCR analysis of Con1 RNA's were described previously (17). Standard curves were generated using in vitro-transcribed HCV RNA's. Intracellular HCV RNA levels were normalized by 18 S rRNA or GAPDH mRNA.

[6] = tested on: intracellular cholesterol; experiment: Total intracellular cholesterol content in SgPC2 cells; assay type: cell-based, human; conditions: 24 h
Method: FIG. 7. […] SgPC2 cells were treated for 24 h with (A and B) 0.2% ethanol, 5 μM acetaldehyde, 0.2% isopropyl alcohol, 2 mM acetone, 5 μM acetate±30 min pretreatment with (A) 5 μM lovastatin, 5 μM fluvastatin, (B) 5 μg/ml TOFA, 5 μg/ml cerulenin, or with (C) 2 mM β-mercaptopropionic acid (β-MPA). Then, HCV RNA levels were monitored by Northern blot and quantified by densitometry (n=3). D, SgPC2 cells, treated for 24 h with ethanol, acetaldehyde, acetone, and acetate±lovastatin, were monitored for cholesterol levels (n=3). Lovastatin was activated, as described, before use (29). *, indicates statistically significant difference for indicated sample sizes (p<0.05)

NADH/NAD+ ratio = experiment: NADH/NAD+ enzymatic NADH recycling assay; assay type: cell-based, human
Method: NADH and NAD+ levels were determined by enzymatic NADH recycling assay, using the NAD+/NADH Quantification Kit from Biovision, per manufacturers recommendations with an optional filtration step that used Microcon YM-10 (Millipore). […] The data were normalized by total protein content, determined with BCA assay kit from Pierce.

[7] = tested on: Con1 subgenomic HCV replicon (genotype 1b); experiment: Con1 subgenomic replicon HCV RNA in SgPC2 cells (Northern blot); assay type: cell-based, hepatitis C virus; conditions: 0.1 to 1% ethanol, 24 hrs
Description: as §3, §5, §4

intracellular GSH = experiment: Intracellular GSH content in Huh7 cells; assay type: cell-based, human
Description: Hepatic ethanol, particularly CYP2E1-mediated, metabolism is known to generate ROS (31). […] First, to examine the effects of endogenously generated ROS, L-buthionine S,R-sulfoximine (BSO) was used. BSO depletes glutathione (GSH), a major endogenous antioxidant, by inhibiting its de novo synthesis and therefore, would amplify the effects of endogenous ROS, generated during normal cellular metabolism and in response to HCV (5). BSO decreases intracellular GSH content by approximately 80±12% in Huh7 cells (P<0.05).

CCO [ethanol]
in vitro replication rate of Con1 strain [1]: accelerated
rate of HCV RNA replication in vitro ([2]; cells exposed to ethanol for 5 hrs): significantly increased
rate of HCV RNA replication in vitro ([2]; cells exposed to ethanol for ½, 1, or 3 hrs, data not shown): no significant increase
intracellular JFH1 HCV RNA levels (JFH1 HCV (genotype 2a); 0.2% (v/v) ethanol once daily): 237±40 % of untreated controls
intracellular JFH1 HCV RNA levels (JFH1 HCV (genotype 2a); 0.5% (v/v) ethanol once daily): 305±61 % of untreated controls
extracellular HCV RNA (virus secretion) (JFH1 HCV (genotype 2a); ethanol treatment 48 hrs, RNase A-resistant RNA in medium): significantly elevated
HCV RNA in Clone B cells [3]: responded similarly
CYP2E1 expression (CYP2E1): enhanced
overall ATP levels [4]: not significantly perturbed
cytotoxicity ([4]; ethanol concentrations used, cell morphology and cellular ATP content): did not induce any cytotoxicity
luciferase activity (JFH1 RNA genome replication) [5]: increased
HCV IRES activity (HCV IRES): did not increase
HCV replication in RIG-1-defective Huh7.5 cells (JFH1 virus; FIG. 5, also data not shown): increase
HCV RNA in Huh7 cells infected with cell culture-generated JFH1 virion (JFH1 virus; ethanol treatment 48 hrs): increased
total intracellular cholesterol content [6]: increased
NADH/NAD+ ratio (NADH/NAD+ ratio; SgPC2 cells, 3 h, 0.2% ethanol, 5 μM acetaldehyde, 5 μM acetate, 0.2% isopropyl alcohol, 2 mM acetone, 25 mM tert-butanol): increases
increase of NADH/NAD+ ratio (NADH/NAD+ ratio; ethanol, within 3 hrs): 76.2±6.1%
genotype 1b HCV RNA [7]: significant increases

CCCCS(=N)(=O)CCC(N)C(=O)O [BSO, L-buthionine S,R-sulfoximine]
decrease of intracellular GSH content (intracellular GSH): approximately 80±12%
extracellular JFH1 RNA levels (JFH1 HCV (genotype 2a); BSO, 24 hrs): significantly decreased
intracellular JFH1 RNA levels (JFH1 HCV (genotype 2a); BSO, 24 hrs): significantly decreased
subgenomic JFH1 RNA replication ([5]; BSO alone or with 0.25 mU/mL GO + glucose, 24 hr): suppressed
